ChEMBL document CHEMBL1153480, “Study on the potential anti-cancer activity of phosphonium and ammonium-based ionic liquids” (2009)

Tests used:
Type in all cases: functional
[1] = test system: Malme-3M; test: cells; settings: Homo sapiens
Description: Growth inhibition of human MALME-3M cells assessed as drug level required for 50% reduction in net protein increase by SRB assay relative to control

[2] = test system: HOP-62; test: cells; settings: Homo sapiens
Description: Growth inhibition of human HOP62 cells assessed as drug level required for 50% reduction in net protein increase by SRB assay relative to control

[3] = test system: K562; test: cells; settings: Homo sapiens
Description: Growth inhibition of human K562 cells assessed as cell growth at 10 uM by SRB assay

[4] = test system: Malme-3M; test: cells; settings: Homo sapiens; remark: listed apart in the source
Description: Growth inhibition of human MALME-3M cells assessed as cell growth at 10 uM by SRB assay

[5] = test system: RPMI-8226; test: Cytotoxicity against human RPMI8226 cells by SRB assay; settings: read-out: LC50 (the source's name)
[6] = test system: HCT-15; test: Cytotoxicity against human HCT15 cells by SRB assay; settings: read-out: LC50 (the source's name)
[7] = test system: SF-539; test: Cytotoxicity against human SF539 cells by SRB assay; settings: read-out: LC50 (the source's name)
[8] = test system: SK-MEL-5; test: Cytotoxicity against human SK-MEL-5 cells by SRB assay; settings: read-out: LC50 (the source's name)
[9] = test system: BT-549; test: cells; settings: Homo sapiens
Description: Growth inhibition of human BT549 cells assessed as drug level required for 50% reduction in net protein increase by SRB assay relative to control

[10] = test system: NCI-H226; test: Cytotoxicity against human NCI-H226 cells by SRB assay; settings: read-out: LC50 (the source's name)
[11] = test system: CCRF-CEM; test: Cytotoxicity against human CCRF-CEM cells by SRB assay; settings: read-out: LC50 (the source's name)
[12] = test system: UACC-257; test: Cytotoxicity against human UACC257 cells by SRB assay; settings: read-out: LC50 (the source's name)
[13] = test system: EKVX; test: cells; settings: Homo sapiens
Description: Growth inhibition of human EKVX cells assessed as drug level required for 50% reduction in net protein increase by SRB assay relative to control

[14] = test system: ACHN; test: cells; settings: Homo sapiens
Description: Growth inhibition of human ACHN cells assessed as cell growth at 10 uM by SRB assay

[15] = test system: LOX IMVI; test: Cytotoxicity against human LOXIMVI cells by SRB assay; settings: read-out: LC50 (the source's name)
[16] = test system: MDA-MB-231; test: Cytotoxicity against human MDA-MB-231 cells by SRB assay; settings: read-out: LC50 (the source's name)
[17] = test system: SF-268; test: Cytotoxicity against human SF268 cells by SRB assay; settings: read-out: LC50 (the source's name)
[18] = test system: HL-60(TB); test: Cytotoxicity against human HL-60(TB) cells by SRB assay; settings: read-out: LC50 (the source's name)
[19] = test system: EKVX; test: Cytotoxicity against human EKVX cells by SRB assay; settings: read-out: LC50 (the source's name)
[20] = test system: A549; test: cells; settings: Homo sapiens
Description: Growth inhibition of human A549 cells assessed as cell growth at 10 uM by SRB assay

[21] = test system: OVCAR-5; test: cells; settings: Homo sapiens
Description: Growth inhibition of human OVCAR5 cells assessed as cell growth at 10 uM by SRB assay

[22] = test system: HOP-92; test: Cytotoxicity against human HOP92 cells by SRB assay; settings: read-out: LC50 (the source's name)
[23] = test system: A498; test: Cytotoxicity against human A498 cells by SRB assay; settings: read-out: LC50 (the source's name)
[24] = test system: ACHN; test: Cytotoxicity against human ACHN cells by SRB assay; settings: read-out: LC50 (the source's name)
[25] = test system: NCI/ADR-RES; test: Cytotoxicity against human NCI/ADR-RES cells by SRB assay; settings: read-out: LC50 (the source's name)
[26] = test system: OVCAR-5; test: Cytotoxicity against human OVCAR5 cells by SRB assay; settings: read-out: LC50 (the source's name)
[27] = test system: RXF 393; test: Cytotoxicity against human RFX393 cells by SRB assay; settings: read-out: LC50 (the source's name)
[28] = test system: SN12C; test: Cytotoxicity against human SN12C cells by SRB assay; settings: read-out: LC50 (the source's name)
[29] = test system: UO-31; test: Cytotoxicity against human UO31 cells by SRB assay; settings: read-out: LC50 (the source's name)
[30] = test system: U-251; test: Cytotoxicity against human U251 cells by SRB assay; settings: read-out: LC50 (the source's name)
[31] = test system: UACC-62; test: Cytotoxicity against human UACC62 cells by SRB assay; settings: read-out: LC50 (the source's name)
[32] = test system: NCI-H322M; test: Cytotoxicity against human NCI-H322M cells by SRB assay; settings: read-out: LC50 (the source's name)
[33] = test system: HCT-116; test: cells; settings: Homo sapiens
Description: Growth inhibition of human HCT116 cells assessed as cell growth at 10 uM by SRB assay

[34] = test system: TK-10; test: Cytotoxicity against human TK10 cells by SRB assay; settings: read-out: LC50 (the source's name)
[35] = test system: BT-549; test: cells; settings: Homo sapiens; remark: listed apart in the source
Description: Growth inhibition of human BT549 cells assessed as cell growth at 10 uM by SRB assay

[36] = test system: IGROV-1; test: cells; settings: Homo sapiens
Description: Growth inhibition of human IGROV1 cells assessed as cell growth at 10 uM by SRB assay

Row | Compound | GI50 [1] | GI50 [2] | growth at 10 µM [3] | growth at 10 µM [4] | CC50 [5] | CC50 [6] | CC50 [7] | CC50 [8] | GI50 [9] | CC50 [10] | CC50 [11] | CC50 [12] | GI50 [13] | growth at 10 µM [14] | CC50 [17] | growth at 10 µM [20] | growth at 10 µM [21] | CC50 [27] | CC50 [29] | growth at 10 µM [33] | further results
1 | CCCCCCCCCCCCCCCCCCPCCCCCCCCCCCCCC.O=S(=O)(NS(=O)(=O)C(F)(F)F)C(F)(F)F (stereo not drawn) | 0.029 µM | 0.435 µM | 39% | -36.5% | 0.098 µM | > 100 µM | > 100 µM | 0.829 µM | 0.066 µM | > 100 µM | 8.46 µM | > 100 µM | 0.123 µM | -26% | > 100 µM | -35% | -7.29% | > 100 µM | > 100 µM | -70.8% | CC50 [15]: 0.592 µM; CC50 [16]: > 100 µM; CC50 [18]: 0.711 µM; CC50 [19]: > 100 µM; CC50 [22]: > 100 µM; CC50 [23]: > 100 µM; CC50 [24]: > 100 µM; CC50 [25]: > 100 µM; CC50 [26]: > 100 µM; CC50 [28]: 4.44 µM; CC50 [30]: 5.62 µM; CC50 [31]: > 100 µM; CC50 [32]: > 100 µM; CC50 [34]: > 100 µM
2 | CCCCCCCC[N+](C)(CCCCCCCC)CCCCCCCC.O=S(=O)([N-]S(=O)(=O)C(F)(F)F)C(F)(F)F | 0.29 µM | 0.787 µM | 86.9% | -94.1% | 0.951 µM | 5.23 µM | 4.19 µM | 0.677 µM | 0.421 µM | 4.41 µM | 2.44 µM | 6.16 µM | 0.215 µM | -93.6% | 5.5 µM | -100% | -100% | 5.75 µM | 5.95 µM | -100% | CC50 [15]: 1.08 µM; CC50 [16]: 3.63 µM; CC50 [18]: 1.23 µM; CC50 [19]: 4.31 µM; CC50 [22]: 4.47 µM; CC50 [23]: 6.36 µM; CC50 [24]: 4.52 µM; CC50 [25]: 8.13 µM; CC50 [26]: 8.17 µM; CC50 [28]: 4.06 µM; CC50 [30]: 4.32 µM; CC50 [31]: 4.1 µM; CC50 [32]: 6.12 µM; CC50 [34]: 4.86 µM
3 | CCCCCCCCCCCCCCCCCCPCCCCCCCCCCCCCC (stereo not drawn) [MONO(OCTADECYL(TETRADECYL)PHOSPHONIUM) MONO(HEXAFLUOROPHOSPHATE(V)) MONO(TETRAFLUOROBORATE)] | 0.034 µM | 0.399 µM | 16.6% | -61.6% |  |  |  |  | 0.094 µM |  |  |  | 0.206 µM | -58.9% | > 100 µM | 2.21% | -70% | > 100 µM | > 100 µM | -13.1% | growth at 10 µM [35]: -83.5%; growth at 10 µM [36]: -19.6%
